US10808283B2, “Methods and kits for the molecular subtyping of tumors” (BioNTech Diagnostics GmbH, priority 2013, dated 2020)

Experiments:
HER2-positive tumors = assay: Kaplan Meier analysis of distant metastasis free survival, HER2-positive tumors; assay type: in vivo, human; conditions: for HR, DMFS: docetaxel vs vinorelbine; for distant metastasis free survival: 5 year time point
Description: FIG. 15 depicts a Kaplan Meier analysis of distant metastasis free survival of HER2-positive tumors.
(§1) For the evaluation of breast tumors, 855 out of 1010 breast cancer patients of the FinHER study (Joensuu et al. (2006), N Engl J Med, 354:809-820) could be used. The mean cut-off values (given as 40-ΔCT values) were as follows: HER2: 38; ESR1: 34; PGR: 30,2; Ki67: 31.7; and RACGAP1: 34.2. The cut-off values for HER2 and ESR1 were determined based on evaluation of previous studies (Koutras et al. (2008), Brit. J. of Cane., 99:1775-1785; Pentheroudakis et al. (2009), Breast Cancer Res Treat 2009, 116:131-143) using 268 samples and were applied to the FinHER study (proportional hazards model validation). CALM2 served as reference gene.
(§2) FIGS. 10 to 19 depict Kaplan-Meier survival curves for different tumor subtypes (luminal B, HER2-positive, luminal A, and triple-negative breast cancer [TNBC]) treated with different chemotherapy agents (docetaxel or vinorelbine). Subytpes defined by RT-qPCR according to the present invention are shown in panel A, whereas subtypes defined by IHC are shown in panel B. Dotted lines mark the 5 year time point for outcome calculations.

[1] = tested on: HER2-positive tumor patients; assay: Kaplan Meier analysis of overall survival, HER2-positive tumor patients; assay type: in vivo, human; conditions: for HR, overall survival: docetaxel vs vinorelbine; for overall survival: 5 year time point
Description: FIG. 14 depicts a Kaplan Meier analysis of the overall survival of HER2-positive tumor patients. […] B: Similar results are shown for tumors subtyped by IHC (86% vs. 89%, HR 1.175; CI 0.518-2.663).
as §1, §2

TNBC tumor patients [2] = assay: Kaplan Meier analysis of overall survival, TNBC tumor patients; assay type: in vivo, human; conditions: for HR, overall survival: docetaxel vs vinorelbine; for overall survival: 5 year time point
Description: FIG. 18 depicts a Kaplan Meier analysis of overall survival of TNBC tumor patients. […] B: When defined by IHC, TNBC patients show a weak, yet non-significant trend towards longer overall survival (88% vs. 80%, HR 0.552; CI 0.207-1.472).
as §1, §2

[3] = tested on: patients with luminal B tumors; assay: Kaplan Meier analysis of overall survival, FinHER patients with luminal B tumors; assay type: in vivo, human; parameters: overall survival: concentration or dose not given beside the values; conditions: for HR, overall survival: docetaxel vs vinorelbine
Description: FIG. 10 depicts a Kaplan Meier analysis of the overall survival of patients with luminal B tumors. […] B: en the tumor subtype is defined by IHC, the benefit of docetaxel for luminal B patients cannot be shown (95% vs. 92%, HR 0.617; CI 0.235-1.623).
FIG. 11 depicts a Kaplan Meier analysis of the overall survival of patients with luminal B tumors, adjusted for tumor histologic type by Cox Regression as specified in the SAP. A: The prediction of the docetaxel benefit by RT-qPCR kit remains significant (97% vs. 88%, HR 0.232; CI 0.087-0.624). B: Subtyping by IHC is not predictive for a docetaxel benefit (96% vs. 92%, HR 0.510; CI 0.184-1.414).
as §1, §2

luminal A tumor patients = assay: Kaplan Meier analysis of distant metastasis free survival, luminal A tumor patients; assay type: in vivo, human; conditions: for HR, DMFS: docetaxel vs vinorelbine; for distant metastasis free survival: 5 year time point
Description: FIG. 17 depicts a Kaplan Meier analysis of distant metastasis free survival of luminal A tumor patients.
as §1, §2

luminal B tumor patients = assay: Kaplan Meier analysis of distant metastasis free survival (DMFS), luminal B tumor patients; assay type: in vivo, human; conditions: for distant metastasis free survival: adjusted for number of metastatic lymph nodes, tumor size and histologic type, 5 years; for distant metastasis free survival (DMFS): 5 year time point
Description: FIG. 12 depicts a Kaplan Meier analysis of distant metastasis free survival (DMFS) of luminal B tumor patients. A: When defined by RT-qPCR, luminal B patients have a higher probability to remain free of distant metastasis when treated with docetaxel-FEC as compared to vinorelbine-FEC (89% vs. 78% respectively, HR 0.471; CI 0.263-0.843). B: When luminal B tumors are defined by IHC, survival differences are not observed between different treatment regimens (87% vs. 86%, HR 0.938 CI 0.474-1.856).
FIG. 13 depicts a Kaplan Meier analysis of distant metastasis free survival of patients with luminal B tumors, adjusted for number of metastatic lymph nodes, tumor size and histologic type by Cox Regression as specified in the SAP. A: By using the subtyping assay of the present invention the effect remains significant (90 vs. 78%, HR 0.409; CI 0.219-0.764). B: By contrast there is no effect when tumor subtyping occurs by IHC (89% vs. 85%, HR 0.674; CI 0.307-1.481).
as §1, §2

luminal A tumors = assay: Kaplan Meier analysis of overall survival, luminal A tumors; assay type: in vivo, human; conditions: for HR, overall survival: docetaxel vs vinorelbine; for overall survival: 5 year time point
Description: FIG. 16 depicts a Kaplan Meier analysis of overall survival of luminal A tumors. […] B: By contrast, when defined by IHC, luminal A patients show a weak, yet non-significant trend towards longer overall survival (97 vs. 93% HR 0.443; CI 0.114-1.716) when treated with docetaxel as compared to vinorelbine.
as §1, §2

TNBC tumor patients [4] = assay: Kaplan Meier analysis of distant metastasis free survival, TNBC tumor patients; assay type: in vivo, human; conditions: for distant metastasis free survival: 5 year time point; for HR, DMFS: docetaxel vs vinorelbine
Description: FIG. 19 depicts a Kaplan Meier analysis of distant metastasis free survival of TNBC tumor patients. […] B: IHC-defined TNBC patients show a weak, yet non-significant trend towards longer distant metastasis free survival (82% vs. 72%, HR 0.615; CI 0.284-1,333) when treated with docetaxel as compared to vinorelbine.
as §1, §2

[5] = FinHER clinical trial; docetaxel compared with vinorelbine; cited from earlier work
[6] = FIG. 15A, HER2-positive defined by method of the invention (RT-qPCR)
[7] = FIG. 15B, HER2-positive defined by IHC
[8] = FIG. 14A, HER2-positive defined by RT-qPCR
[9] = FIG. 14B, HER2-positive subtyped by IHC
[10] = FIG. 18A, TNBC defined by RT-qPCR
[11] = FIG. 10B, luminal B defined by IHC, 5 year time point
[12] = FIG. 11A, luminal B by RT-qPCR, adjusted for tumor histologic type by Cox Regression, 5 years
[13] = FIG. 11B, luminal B by IHC, adjusted for tumor histologic type by Cox Regression, 5 years
[14] = FIG. 17A, luminal A defined by RT-qPCR
[15] = FIG. 17B, luminal A IHC-subtyped
[16] = FIG. 16A, luminal A defined by RT-qPCR
[17] = FIG. 16B, luminal A defined by IHC
[18] = FIG. 10A, luminal B defined by RT-qPCR, 5 year time point, combined with FEC
[19] = FIG. 12A, luminal B defined by RT-qPCR
[20] = FIG. 12B, luminal B defined by IHC

Compound: CC(=O)O[C@@]12CO[C@@H]1C[C@H](O)[C@@]1(C)C(=O)[C@H](O)C3=C(C)[C@@H](OC(=O)[C@H](O)[C@@H](NC(=O)OC(C)(C)C)c4ccccc4)C[C@@](O)([C@@H](OC(=O)c4ccccc4)[C@H]21)C3(C)C [docetaxel]
- HR, DMFS (HER2-positive tumors; FIG. 15A, HER2-positive by RT-qPCR): 1.070
- distant metastasis free survival (HER2-positive tumors; [6]): 80%
- HR, DMFS (HER2-positive tumors; FIG. 15B, HER2-positive by IHC): 0.975
- distant metastasis free survival (HER2-positive tumors; [7]): 78%
- HR, overall survival ([1]; FIG. 14A, HER2-positive by RT-qPCR): 1.320
- overall survival [1, 8]: 87%
- HR, overall survival ([1]; FIG. 14B, HER2-positive by IHC): 1.175
- overall survival [1, 9]: 86%
- HR, overall survival (TNBC tumor patients [2]; FIG. 18A, TNBC by RT-qPCR): 0.949
- overall survival (TNBC tumor patients [2]; [10]): 84%
- HR, overall survival (TNBC tumor patients [2]; FIG. 18B, TNBC by IHC): 0.552
- overall survival (TNBC tumor patients [2]; FIG. 18B, TNBC defined by IHC): 88%
- overall survival [3, 11]: 95%
- HR, overall survival ([3]; FIG. 10B, luminal B defined by IHC): 0.617
- overall survival [3, 12]: 97%
- HR, overall survival ([3]; FIG. 11A, luminal B by RT-qPCR, adjusted for tumor histologic type): 0.232
- overall survival [3, 13]: 96%
- HR, overall survival ([3]; FIG. 11B, luminal B by IHC, adjusted for tumor histologic type): 0.510
- benefit of docetaxel treatment ([3]; luminal B tumors classified by RT-qPCR, FIGS. 10 to 19, vs vinorelbine, combined with FEC): significant benefit
- HR, DMFS (luminal A tumor patients; FIG. 17A, luminal A by RT-qPCR): 0.826
- distant metastasis free survival (luminal A tumor patients; [14]): 92%
- distant metastasis free survival (luminal A tumor patients; [15]): 93%
- HR, DMFS (luminal A tumor patients; FIG. 17B, luminal A by IHC): 0.553
- HR, DMFS (luminal B tumor patients; FIG. 13A, luminal B by RT-qPCR, adjusted for metastatic lymph nodes, tumor size, histologic type, docetaxel vs vinorelbine): 0.409
- distant metastasis free survival (luminal B tumor patients; FIG. 13A, luminal B by RT-qPCR): 90%
- HR, DMFS (luminal B tumor patients; FIG. 13B, luminal B by IHC, adjusted for metastatic lymph nodes, tumor size, histologic type, docetaxel vs vinorelbine): 0.674
- distant metastasis free survival (luminal B tumor patients; FIG. 13B, luminal B by IHC): 89%
- HR, overall survival (luminal A tumors; FIG. 16A, luminal A by RT-qPCR): 2.471
- overall survival (luminal A tumors; [16]): 95%
- HR, overall survival (luminal A tumors; FIG. 16B, luminal A by IHC): 0.443
- overall survival (luminal A tumors; [17]): 97%
- outcome compared to vinorelbine (luminal A tumors; luminal A tumors by RT-qPCR, effect does not reach statistical significance): even inferior to vinorelbine
- distant metastasis free survival (TNBC tumor patients [4]; FIG. 19A, RT-qPCR-defined TNBC): 74%
- HR, DMFS (TNBC tumor patients [4]; FIG. 19A, TNBC by RT-qPCR): 1.211
- distant metastasis free survival (TNBC tumor patients [4]; FIG. 19B, IHC-defined TNBC): 82%
- HR, DMFS (TNBC tumor patients [4]; FIG. 19B, TNBC by IHC): 0.615
- adverse effects [5]: more commonly associated with adverse effects

Compound: CCC1=C[C@@H]2CN(C1)Cc1c([nH]c3ccccc13)[C@@](C(=O)OC)(c1cc3c(cc1OC)N(C)[C@H]1[C@@](O)(C(=O)OC)[C@H](OC(C)=O)[C@]4(CC)C=CCN5CC[C@]31[C@@H]54)C2 [vinorelbine]
- distant metastasis free survival (HER2-positive tumors; [6]): 81%
- distant metastasis free survival (HER2-positive tumors; [7]): 77%
- overall survival [1, 8]: 91%
- overall survival [1, 9]: 89%
- overall survival (TNBC tumor patients [2]; [10]): 83%
- overall survival (TNBC tumor patients [2]; FIG. 18B, TNBC defined by IHC): 80%
- overall survival [3, 12]: 88%
- overall survival [3, 13]: 92%
- distant metastasis free survival (luminal A tumor patients; [14]): 90%
- distant metastasis free survival (luminal A tumor patients; [15]): 88%
- distant metastasis free survival (luminal B tumor patients; FIG. 13A, luminal B by RT-qPCR): 78%
- distant metastasis free survival (luminal B tumor patients; FIG. 13B, luminal B by IHC): 85%
- overall survival (luminal A tumors; [16]): 98%
- overall survival (luminal A tumors; [17]): 93%
- distant metastasis free survival (TNBC tumor patients [4]; FIG. 19A, RT-qPCR-defined TNBC): 78%
- distant metastasis free survival (TNBC tumor patients [4]; FIG. 19B, IHC-defined TNBC): 72%

Compound: docetaxel
- overall survival [3, 18]: 97%
- Hazard Ratio [HR], overall survival ([3]; FIG. 10A, luminal B defined by RT-qPCR, docetaxel-FEC vs vinorelbine-FEC): 0.241
- distant metastasis free survival (DMFS) (luminal B tumor patients; [19]): 89%
- HR, DMFS (luminal B tumor patients; FIG. 12A, luminal B defined by RT-qPCR, docetaxel-FEC vs vinorelbine-FEC): 0.471
- distant metastasis free survival (DMFS) (luminal B tumor patients; [20]): 87%
- HR, DMFS (luminal B tumor patients; FIG. 12B, luminal B defined by IHC, docetaxel-FEC vs vinorelbine-FEC): 0.938

Compound: vinorelbine
- overall survival [3, 18]: 89%
- overall survival [3, 11]: 92%
- distant metastasis free survival (DMFS) (luminal B tumor patients; [19]): 78%
- distant metastasis free survival (DMFS) (luminal B tumor patients; [20]): 86%
